Data on 2 compounds can be found in ChEMBL document CHEMBL5120919, “Micrococcin P2 Targets Clostridioides difficile” (J Nat Prod, 2022).

Each structure is given as a SMILES string. Values after ≈ are worked out from the molar mass of the structure shown. Active and inactive are the calls of the source. No cut-off for these calls is given here.

Series [1] deals with RAW264.7. Kind of series: Antiinflammatory activity in mouse RAW264.7 cells assessed as decrease in LPS induced IL-1beta expression in supernatant at 5 to 40 uM measured after 24 hrs by ELISA. The settings on record: dose 5-40 µM. The class given is functional, cell-based. Background: In an ELISA, binding on a coated surface is turned into a signal by an enzyme label.
Series [2] has as its system Clostridioides difficile. Kind of series: Antibacterial activity against Clostridioides difficile RT017/ST37 clinical isolate expressing A-B+ toxin assessed as inhibition of bacterial growth incubated for 24 hrs by CLSI based agar dilution method. The class given is functional. For orientation: In agar dilution, organisms are placed on agar that contains the substance at set levels.

Series [3] relates to Clostridioides difficile. As to the kind of experiment: Antibacterial activity against Clostridioides difficile RT012/ST54 clinical isolate expressing A+B+ toxin assessed as inhibition of bacterial growth incubated for 24 hrs by CLSI based agar dilution method. The class given is functional.
A short description of series [4]: MRT in Sprague-Dawley rat at 10 mg/kg, po measured up to 8 hrs by LC-MS/MS analysis. The class given is ADME, organism-based. To be noted: in vivo, BLD = below limit of detection.
Series [5] deals with Clostridioides difficile. Kind of series: Antibacterial activity against Clostridioides difficile RT078/ST11 clinical isolate expressing A+B+CDT+ toxin assessed as inhibition of bacterial growth incubated for 24 hrs by CLSI based agar dilution method. The format is functional.
A short description of series [6]: Clearance in Sprague-Dawley rat at 2 mg/kg, iv measured up to 8 hrs by LC-MS/MS analysis. The class given is ADME, organism-based. To be noted: in vivo.
In series [7] the test system is Clostridioides difficile. Kind of series: Antibacterial activity against Clostridioides difficile RT027 infected in DSS-induced IBD C57BL/6 mouse model assessed as survival rate at 30 mg/kg, po administered once daily for 5 days. The format is functional. To be noted: time 5 day.
In the next series the test system is SH-SY5Y. Kind of series: Cytotoxicity against human SH-SY5Y cells assessed as reduction in cell viability at 40 uM incubated for 48 hrs by CCK-8 assay. The class given is toxicity, cell-based. On the technique in general: Tetrazolium assays rely on reduction of a dye to a coloured formazan, in cell work by metabolically active cells.
Series [8] in a line: Volume of distribution at steady state in Sprague-Dawley rat at 2 mg/kg, iv measured up to 8 hrs by LC-MS/MS analysis. The format is ADME, organism-based. The settings on record: in vivo, read-out: Vdss.
Series [9] concerns Clostridioides difficile. As to the kind of experiment: Antibacterial activity against Clostridioides difficile RT015/ST35 clinical isolate expressing A+B+ toxin assessed as inhibition of bacterial growth incubated for 24 hrs by CLSI based agar dilution method. The format is functional.
Series [10] in a line: Half life in Sprague-Dawley rat at 10 mg/kg, po measured up to 8 hrs by LC-MS/MS analysis. The settings on record: in vivo, BLD = below limit of detection. The class given is ADME, organism-based.
Series [11] deals with Clostridioides difficile. Kind of series: Antibacterial activity against Clostridioides difficile RT018/ST17 clinical isolate expressing A+B+ toxin assessed as inhibition of bacterial growth incubated for 24 hrs by CLSI based agar dilution method. The class given is functional.
In series [12] the test system is Clostridioides difficile. As to the kind of experiment: Antibacterial activity against Clostridioides difficile RT001/ST3 clinical isolate expressing A+B+ toxin assessed as inhibition of bacterial growth incubated for 24 hrs by CLSI based agar dilution method. The format is functional.
The nature of series [13]: Half life in Sprague-Dawley rat at 2 mg/kg, iv measured up to 8 hrs by LC-MS/MS analysis. The class given is ADME, organism-based. The settings on record: in vivo.
Series [14] relates to Clostridioides difficile. As to the kind of experiment: Antibacterial activity against Clostridioides difficile RT002/ST8 clinical isolate expressing A+B+ toxin assessed as inhibition of bacterial growth incubated for 24 hrs by CLSI based agar dilution method. The class given is functional.
Series [15] has as its system Clostridioides difficile. Kind of series: Antibacterial activity against Clostridioides difficile ST221 clinical isolate expressing A+B+CDT+ toxin assessed as inhibition of bacterial growth incubated for 24 hrs by CLSI based agar dilution method. The class given is functional.
For series [16], the system named is Clostridioides difficile. Kind of series: Antibacterial activity against Clostridioides difficile RT027 assessed as reduction in bacterial count at 1 to 4 times MIC measured after 24 hrs by CLSI based time kill curve assay. The format is functional.
The subject of another series is HEK-293T. Kind of series: Cytotoxicity against HEK293T cells assessed as reduction in cell viability at 40 uM incubated for 48 hrs by CCK-8 assay. The format is toxicity, cell-based. The settings on record: human.
The test system of series [17] is Clostridioides difficile. As to the kind of experiment: Antibacterial activity against Clostridioides difficile RT293/ST129 clinical isolate expressing A+B+ toxin assessed as inhibition of bacterial growth incubated for 24 hrs by CLSI based agar dilution method. The format is functional.
For series [18], the system named is Clostridioides difficile. As to the kind of experiment: Antibacterial activity against Clostridioides difficile RT027/ST1 clinical isolate expressing A+B+CDT+ toxin assessed as inhibition of bacterial growth incubated for 24 hrs by CLSI based agar dilution method. The class given is functional.
In series [19] the test system is Clostridioides difficile. As to the kind of experiment: Antibacterial activity against Clostridioides difficile RT130/ST5 clinical isolate expressing A+B+CDT+ toxin assessed as inhibition of bacterial growth incubated for 24 hrs by CLSI based agar dilution method. The class given is functional.
Series [20] is described as follows: Clearance in Sprague-Dawley rat at 10 mg/kg, po measured up to 8 hrs by LC-MS/MS analysis. The format is ADME, organism-based. To be noted: in vivo, BLD = below limit of detection.
A short description of series [21]: Volume of distribution at steady state in Sprague-Dawley rat at 10 mg/kg, po measured up to 8 hrs by LC-MS/MS analysis. The format is ADME, organism-based. The settings on record: in vivo, BLD = below limit of detection.
A short description of series [22]: MRT in Sprague-Dawley rat at 2 mg/kg, iv measured up to 8 hrs by LC-MS/MS analysis. To be noted: in vivo. The class given is ADME, organism-based.
Series [23] deals with RAW264.7. As to the kind of experiment: Antiinflammatory activity in mouse RAW264.7 cells assessed as decrease in LPS induced IL6 expression in supernatant at 5 to 40 uM measured after 24 hrs by ELISA. To be noted: dose 5-40 µM. The format is functional, cell-based.
Series [24] deals with Clostridioides difficile. Kind of series: Antibacterial activity against Clostridioides difficile RT014/ST14 clinical isolate expressing A+B+ toxin assessed as inhibition of bacterial growth incubated for 24 hrs by CLSI based agar dilution method. The class given is functional.
Series [25] deals with Clostridioides difficile. Kind of series: Antibacterial activity against Clostridioides difficile RT027 assessed as regrowth of bacteria at 0.5 times MIC measured after 6 hrs by CLSI based time kill curve assay. The class given is functional, organism-based.
A short description of series [26]: AUClast in Sprague-Dawley rat at 2 mg/kg, iv measured up to 8 hrs by LC-MS/MS analysis. The format is ADME, organism-based. The arrangement: time < 8 hrs, dose 2 mg/kg, route iv. To be noted: in vivo.
The test system of series [27] is Clostridioides difficile. As to the kind of experiment: Antibacterial activity against Clostridioides difficile RT027 assessed as reduction in bacterial count at 5 ug/ml measured after 24 hrs by CLSI based time kill curve assay. The settings on record: dose 5 µg/ml. The format is functional.

The MIC is the lowest concentration that inhibits growth of the organism. Usually MRT stands for the average time that molecules of a dose stay in the body. As a reminder, the clearance is the volume of plasma or blood freed of the substance per unit of time. Usually half-life stands for the time in which the quantity being followed falls by half. For orientation: AUC(0-t) means the area under the concentration-time curve up to a stated or last time point. A high value points to more exposure. Turning to `C/C=C(\NC(=O)c1csc(-c2csc(-c3ccc4c(n3)-c3csc(n3)[C@H]([C@@H](C)O)NC(=O)c3csc(n3)[C@H](C(C)C)NC(=O)c3csc(n3)/C(=C/C)NC(=O)[C@H]([C@@H](C)O)NC(=O)c3csc-4n3)n2)n1)C(=O)NCC(C)=O`, the outcome with RAW264.7 [1], in the series with RAW264.7 [23] and with Clostridioides difficile [25] was Active. Besides, the MIC in the series on Clostridioides difficile [2] came out at 1 mg/L (≈ 0.875 µM); with Clostridioides difficile [3], 2 mg/L (≈ 1.75 µM); with Clostridioides difficile [5], 1 mg/L (≈ 0.875 µM); in the series on Clostridioides difficile [9], 1 mg/L (≈ 0.875 µM); in the series with Clostridioides difficile [11] it was 1 mg/L (≈ 0.875 µM); with Clostridioides difficile [12], 2 mg/L (≈ 1.75 µM). Further, the minimum inhibitory concentration (MIC) in the series on Clostridioides difficile [14] came to 1 mg/L (≈ 0.875 µM); with Clostridioides difficile [15], 2 mg/L (≈ 1.75 µM); in the series with Clostridioides difficile [17], 1 mg/L (≈ 0.875 µM); in the series with Clostridioides difficile [18], 1 mg/L (≈ 0.875 µM); with Clostridioides difficile [19] it was 1 mg/L (≈ 0.875 µM); with Clostridioides difficile [24], 1 mg/L (≈ 0.875 µM). Also, the results for the MRT entry in series [4] and in [22] were “Bld” and 24 min, respectively. In addition, the clearance in series [6] came to 5.33 L/h/kg. In addition, the Activity is 100% in the series with Clostridioides difficile [7], “Non-Toxic” in the series with SH-SY5Y, 2.5 log10CFU in the series with Clostridioides difficile [16] and “Non-Toxic” in the series on HEK-293T. In series [8], the Vd amounted to 2.1 L/kg. Moreover, the t1/2 entry in series [10] was “Bld”. In series [13], this compound showed a half-life of 48 min. Further, in series [20], the CL result is reported as “Bld”. Besides, in series [21], the Vdss entry is reported as “Bld”. For the same compound, the AUC(0-t) at 8 h in [26] is 0.374 µg·h/mL.
As for `CN[C@H](CC(C)C)C(=O)N[C@H]1C(=O)N[C@@H](CC(N)=O)C(=O)N[C@H]2C(=O)N[C@H]3C(=O)N[C@H](C(=O)N[C@H](C(=O)O)c4cc(O)cc(O)c4-c4cc3ccc4O)[C@H](O)c3ccc(c(Cl)c3)Oc3cc2cc(c3O[C@@H]2O[C@H](CO)[C@@H](O)[C@H](O)[C@H]2O[C@H]2C[C@](C)(N)[C@H](O)[C@H](C)O2)Oc2ccc(cc2Cl)[C@H]1O` [VANCOMYCIN], the MIC was 0.5 mg/L (≈ 0.345 µM) in the series on Clostridioides difficile [2]; 1 mg/L (≈ 0.69 µM) with Clostridioides difficile [3]; 1 mg/L (≈ 0.69 µM) in the series with Clostridioides difficile [5]; 1 mg/L (≈ 0.69 µM) with Clostridioides difficile [9]; 0.5 mg/L (≈ 0.345 µM) with Clostridioides difficile [11]; 1 mg/L (≈ 0.69 µM) with Clostridioides difficile [12]. Also, the MIC with Clostridioides difficile [14] amounted to 1 mg/L (≈ 0.69 µM); with Clostridioides difficile [15] it was 1 mg/L (≈ 0.69 µM); in the series with Clostridioides difficile [17], 1 mg/L (≈ 0.69 µM); in the series on Clostridioides difficile [18], 0.5 mg/L (≈ 0.345 µM); in the series on Clostridioides difficile [19], 0.5 mg/L (≈ 0.345 µM); in the series with Clostridioides difficile [24] it was 1 mg/L (≈ 0.69 µM). In addition, in the series on Clostridioides difficile [27], the Activity was determined as 1.5 log10CFU.
